Data reported in paper PMC8406319, “The dCache Chemoreceptor TlpA of Helicobacter pylori Binds Multiple Attractant and Antagonistic Ligands via Distinct Sites” (mBio, 2021).
Counter-ions that a name gives are not always drawn.

Columns and labels:
WT TlpALBD = experiment: SPR competition (A-B-A) binding assay; set-up: species or system Helicobacter pylori SS1; conditions: compounds at 10-fold their Kd
Description: The two ligands’ binding status can be classified as either independent, shared, or preferential shared sites. For independent sites, ligand A saturates all its binding sites, and ligand B then binds to its independent site; this mode produces additive effects on the SPR signal. […] Finally, it is also possible to have preferential shared sites where ligands share the same binding site, but the protein binds to one ligand preferentially when in equilibrium.
SPR competition assays were performed by using a Biacore S200 instrument and the A-B-A inject function ([56]). Competition A-B-A analyses were used to interrogate the specificity of the potential ligand binding site preferences of TlpALBD and to unravel the nature of the ligand-sensor interactions. This assay was designed to show if a cumulative response is observed when a second analyte (B) is flown across the bound protein saturated with the first analyte (A) (Fig. 4). […] The wild-type TlpALBD protein was immobilized as described above. […] All response data were normalized to a molecular weight of 100 Da for each analyte, allowing direct comparison of responses. Independent-site theoretical values are calculated by taking the sum of individual responses. Shared-site theoretical values are calculated by taking the sum of individual responses divided by the number of individual responses.

TlpALBD = experiment: Saturation transfer difference (STD) NMR; assay type: binding, Helicobacter pylori SS1; conditions: 25 μM TlpALBD, 2.5 mM ligand
Description: In the saturation transfer difference (STD) NMR experiment, the entire TlpALBD protein was first saturated at the protein resonances, and excess ligand was then added. As the ligand binds and releases from the receptor, saturation transfers from the protein to the bound ligand. This transfer appeared as an […] in the ligand intensity on epitopes that interacted with the TlpALBD protein. […] All STD NMR spectra were acquired in Shigemi tubes (Shigemi, USA) with a Bruker 600-MHz Advance spectrometer at 283 K using a 1^H-13^C-15^N gradient cryoprobe equipped with z-gradients. Protein resonances were saturated at −1.0 ppm (on-resonance) and 33 ppm (off-resonance), with a total saturation time of 2 s. A total of 512 scans per STD NMR experiment were acquired, and a Watergate sequence was used to suppress the residual HDO signal. A spin-lock filter with a 5-kHz strength and a duration of 10 ms was applied to suppress the protein background. On- and off-resonance spectra were stored and processed separately, and the final STD NMR spectra were obtained by subtracting the on- and off-resonance spectra. Control STD NMR experiments were performed identically in the absence of protein.

H. pylori PMSS1 WT = experiment: Ligand competition tracking (chemotaxis) assay; assay type: cell-based, Helicobacter pylori; conditions: 10 mM each; added before or after the chemoattractant
Description: Consequently, we tested whether glucosamine affected H. pylori chemotaxis by developing a ligand competition tracking assay between non-chemotaxis-active and chemotaxis-active TlpA ligands. This assay is a modified version of our live-cell video microscopy assay where the addition of a chemotaxis-active ligand is followed by the addition of a non-chemotaxis-active ligand 10 s later and vice versa. […] This response was decreased regardless of whether glucosamine was added before or after the addition of the chemoattractant.
FIG 7 Ligand competition tracking experiment between chemoactive and nonchemoactive TlpA ligands. Cultures of the H. pylori PMSS1 WT were grown in BB10 overnight and then back-diluted as described in the legend of Fig. 1. Cultures were mock treated or treated with various concentrations of compounds as indicated. The pH of the cysteine stock was adjusted using NaOH to match the pH of the water used for the untreated control. The cells were immediately filmed, and direction changes were counted over a 3-s swimming period in at least 100 cells per treatment from 3 biological replicates. Repellents increase direction changes, as exemplified by the control repellent HCl, while attractants decrease direction changes, as exemplified by the control attractant dipyridyl. Data are normalized to the values for the untreated control for each strain, as described in Materials and Methods. […]
Swimming behavior assays were done with H. pylori PMSS1 strains grown in BB10 as described above. […] The pH of BB10 upon treatment was independently assessed using a Denver Instruments pH meter. […] For each sample, >100 3-s-long bacterial tracks from three independent cultures were analyzed manually to identify stops followed by direction changes. Data for all biological replicates under each condition were combined, and the average number of direction changes in 3 s and the standard error of the mean were calculated. […]

SMILES	SPR response following initial saturation with glucosamine (WT TlpALBD)	SPR response after saturation of TlpALBD with fumarate (WT TlpALBD; compared to theoretical value)	STD NMR signal on binding TlpALBD (TlpALBD)	SPR response after saturation of TlpALBD with arginine (WT TlpALBD; compared to theoretical value)	SPR response following saturation with arginine or fumarate (WT TlpALBD)	Effect on chemoattractant response to arginine (H. pylori PMSS1 WT)	Effect on chemoattractant response to cysteine (H. pylori PMSS1 WT)	Effect on chemoattractant response to fumarate (H. pylori PMSS1 WT)
N=C(N)NCCC[C@H](N)C(=O)O [Arginine, L-arginine monohydrochloride]	no additive response was observed	did not produce an additional response	significant STD NMR signals were observed					
O=C(O)/C=C/C(=O)O [Fumarate, sodium fumarate]	no additive response was observed		significant STD NMR signal was detected	increased response (additive effect)				
N[C@H]1C(O)O[C@H](CO)[C@@H](O)[C@@H]1O (stereo partly drawn) [Glucosamine, D(+)-glucosamine hydrochloride]					the response was not additive	prevented the chemoattractant response	severely blunted the response	prevented the chemoattractant response
